Experimental findings from patent US20230149507A1, “TREATMENT OF ALT CANCERS” (INSTITUTO DE MEDICINA MOLECULAR JOÃO LOBO ANTUNES, priority 2019, published 2023) are described below.

Test [1] relates to U-2 OS cells. In words: C-circle assay in cells overexpressing FANCM variants. The format is cell-based, human. As to conditions: stable overexpression, compared to vector control. The source says:
(a) Schematic of FANCM domain interactions, mutations or deletions. For clarity, domains have been color coded by functional role (bottom panel). (b) Quantitation of metaphase-TIFs in U-2 OS cells stably overexpressing wild-type (FANCM+) or FANCM mutants. Scatterplot bars represent the mean±SEM. Out of 3 experiments, n≥110 metaphases scored for each mutant, *p<0.05, **p<0.005, Mann-Whitney test. (c) Quantitation of fragile telomeres in U-2 OS cells stably overexpressing wild-type (FANCM+) or FANCM mutants. Scatterplot bars represent the mean±SEM. Out of 3 experiments, n>100 metaphases scored for each mutant, *p<0.05, **p<0.005, Mann-Whitney test. (d) Representative dot blots and quantitation of C-circle assays in U-2 OS cells stably overexpressing wild-type (FANCM+) or FANCM domain mutants. C-circles were normalized to the mean of vector control. Error bars represent mean±SEM from n=3 experiments, *p<0.05, **p<0.005, Student's t-test. (e) Single molecule analysis of telomeric extension events (top panel) and length of extension events (bottom panel) in U-2 OS cells stably overexpressing wild-type (FANCM+) or FANCM domain mutants. Error bars represent mean±SEM of n≥350 fibers out of 3 experiments, *p<0.05, **p<0.005, Student's t-test.
FIG. 23. Defects in ALT phenotype suppression are exacerbated by overexpression of a double-mutant (DM) FANCM, in which both the MM2 domain (FF>AA) and the translocase domain (K117R) of FANCM are mutated. (a) Representative dot blots and quantitation of C-circle assays in U-2 OS cells stably overexpressing wild-type (WT) or FANCM domain mutants (K117R, FF>AA; DM). C-circles were normalized to the mean of empty vector control (EV). Error bars represent mean±SEM from n=3 experiments, *p<0.05, **p<0.005, Student's t-test. (b) Quantitation of APB frequency in U-2 OS cells overexpressing wild-type (WT) or FANCM mutants. Scatterplot bars represent the mean±SEM. Out of three experiments, n=150 cells were scored for each mutant, **p<0.005, Mann-Whitney test. (c) Quantitation of metaphase-TIFs in U-2 OS cells stably overexpressing wild-type (WT) or FANCM mutants. Scatterplot bars represent the mean±SEM. Out of three experiments, n=120 metaphases scored for each mutant, *p<0.05, **p<0.005, Mann-Whitney test. All statistical comparisons are relative to EV control.
(§1) Empty vector and wild-type FANCM (pCMV6-Myc-DDK) constructs were obtained from Origene Technologies. Wild type FANCM (SEQ ID NO: 2) and FANCM mutants (SEQ ID NOs: 19 to 28) were cloned into the pLenti-C-Myc-DDK-IRES-Neo backbone (Origene Technologies) by restriction enzyme subcloning of gene blocks synthesized by Integrated DNA Technologies (IDT). Lentivirus was produced by the Vector and Genome Engineering Facility (Children's Medical Research Institute). For stable overexpression, cells were transduced with lentivirus, allowed to recover for 24 h, and subject to G418 selection. Cells were maintained in G418 to ensure sustained overexpression.
C-circles were amplified with Phi29 polymerase using dATP, dTTP and dGTP overnight. Products were dot blotted onto Biodyne B membranes (Pall) and pre-hybridised in PerfectHyb Plus (Sigma) for at least 30 min. Radiolabeled telomeric C-probe was then added and blots were hybridized overnight at 37° C. (Henson et al., 2009). Blots were washed with 0.5×SSC, 0.1% SDS three times for 5 min each then exposed to phosphor screen. Imaging was performed on the Typhoon FLA 7000 system (GE Healthcare) with a PMT of 750 V.

The test system of test [2] is U-2 OS cells. The test can be described thus: TRF analysis of cells overexpressing FANCM variants. The format is cell-based, human. As to conditions: overexpression.
Excerpt: (a) Western immunoblotting of stable wild-type FANCM (FANCM+) or FANCM mutant overexpression in U-2 OS cells. […] (b) TRF analysis of U-2 OS cells overexpressing wild-type (FANCM+) or FANCM mutants. Gels were hybridized under native and denatured conditions with radiolabelled telomeric probes to detect the C-strand and G-strand. (c) Tukey boxplots of APB frequency (top panel) and mean APB telomere intensity (bottom panel) in U-2 OS cells overexpressing wild-type (FANCM+) or FANCM mutants. Out of 3 experiments, n=150 cells scored per variant, *p<0.05, **p<0.005, Mann-Whitney test.
as §1
Genomic DNA was digested with 4 U/μg of HinfI and RsaI overnight at 37° C. […]

Consider “FF>AA: FANCM mutant (SEQ ID NO: 25), double substitution F1232A/F1236A within the MM2 domain”, for which the C-circle levels result in test [1] was “approximate two-fold increase in C-circles”. Further, the “low molecular weight ss C-rich telomeric DNA” value in test [2] is recorded as “smear of low molecular weight ss C-rich telomeric DNA was observed”.
Consider “K117R: FANCM mutant (SEQ ID NO: 20) substituted at K117R, DEAH domain disrupted”, for which the C-circle levels entry in test [1] was “did not cause a change in C-circle levels”. Moreover, the “low molecular weight ss C-rich telomeric DNA” value in test [2] is recorded as “smear of low molecular weight ss C-rich telomeric DNA was observed”.
